System: Platelet Activating Factor (PAF)-induced bronchoconstriction
Test: Effect on Bronchoconstriction Induced by Platelet Activating Factor (PAF) in Guinea Pigs (Konzett-Rossler method)
Assay type: in vivo, Male Hartley guinea pigs
Settings: guinea pig; drug 10 mg/Kg orally 1 hour before PAF (1 μg/Kg, i.v.); recorded for 15 minutes
Protocol: Effect on Bronchoconstriction Induced by Platelet Activating Factor (PAF) in Guinea Pigs
Male Hartley guinea pigs (body weight 500 g) were used. The bronchoconstriction reaction in the guinea pig which has intravenously received PAF (1 μg/Kg) was measured by the Konzett-Rossler method. The trachea of the guinea pig with its back fixed was incised under anesthesia condition with urethane (intraperitoneal injection, 1.50 g/Kg) and connected with an artificial respirator via a cannula. The branch of the tracheal cannula was connected with a transducer (7020 type, Ugobasile). Air was sent to the trachea at the volume of 3-7 ml/stroke, at the stroke of 70 strokes/min. at load pressure of 10 cm H2 O to lung and overflowed air volume was recorded with Rectegraph (Recte-Hori-8s, Sanei Sokuki) via the transducer. After the guinea pig was treated with galamine (1 mg/Kg, i.v.), PAF (1 μg/Kg) dissolved in a physiological saline solution was administered to the guinea pig via a jugular venous cannula and the bronchoconstriction reaction induced thereby was recorded for 15 minutes. The drug (10 mg/Kg) suspended in a 5% gum arabic solution was administered orally 1 hour before the injection of PAF.

Row | Compound | Inhibition (%) of PAF-induced bronchoconstriction
1 | NS(=O)(=O)CC1(CSc2ccc3nccn3n2)CCC1 [Example 13, 6-[(2,2-trimethylene-3-sulfamoylpropyl)thio]imidazo[1,2-b]pyridazine] | 40%
2 | NS(=O)(=O)CC1(COc2ccc3nccn3n2)CC1 [Example 4, 6-[(2,2-dimethylene-3-sulfamoylpropyl)oxy]imidazo[1,2-b]pyridazine] | 48%
3 | NS(=O)(=O)CC1(COc2ccc3nccn3n2)CCCCC1 [Example 1, 6-[(2,2-pentamethylene-3-sulfamoylpropyl)oxy]imidazo[1,2-b]pyridazine] | 72%
4 | NS(=O)(=O)CC1(COc2ccc3nccn3n2)CCC1 [Example 3, 6-[(2,2-trimethylene-3-sulfamoylpropyl)oxy]imidazo[1,2-b]pyridazine] | 58%
5 | NS(=O)(=O)CC1(COc2ccc3nccn3n2)COC1 [Example 9, 6-[[2,2-(2-oxatrimethylene)-3sulfamoylpropyl]oxy]imidazo[1,2-b]pyridazine] | 51%
6 | NS(=O)(=O)CC1(COc2ccc3nccn3n2)CCCC1 [Example 2, 6-[(2,2-tetramethylene-3-sulfamoylpropyl)oxy]imidazo[1,2-b]pyridazine] | 78%

Source: US5145850A, “Imidazopyridazines, their production and use” (Takeda Chemical Industries, Ltd., priority 1990, dated 1992)
